The record followed here is US7351701B2, “Therapeutic compounds” (Cancer Research Technology Limited, priority 2004, dated 2008).

Where two headings read alike, the source gives them in different places. Bounds are passed on as bounds.

In data set [1] the test system is VC8 cell line. Put plainly: Clonogenic survival assay, VC8 cell line (lacks BRCA2).
Experimental: (§4) All cell lines in this study were grown in Dulbecco's modified Eagle's Medium (DMEM) with 10% Foetalbovine serum and penicillin (100 U/ml) and steptomycin sulphate (100 μg/mL) at 37° C. under an atmosphere containing 5% CO2.
(§5) The cells were harvested by trypsinisation, counted and seeded at varying densities in 10 cm dishes in fresh medium in the absence of drug for colony formation.
(§6) 7-10 days later the dishes were fixed with methanol:acetic acid 3:1 and stained with 0.4% crystal violet.
(§7) Colonies were counted and the survival relative to 1% DMSO control treated cells calculated.
For data set [2], the system named is IrS ISF cell line. As to the kind of experiment: cells. The format is cell-based. To be noted: Cricetulus griseus, 24 h, read-out: LC50 (the concentration of the active component that kills 50% of the cells). From the text: The AA8, irs1SF and CXR3 cell lines were provided by Larry Thompson.
Toxicity Assay—Clonogenic Survival Assay

For data set [3], the target named is T1, PARP (Homo sapiens, UniProt P09874).
T1 construct: PARP activity in tumour homogenates (1 in 40 in isotonic buffer) from formula III-treated mice; from tissue; host or cells: homogenates of SW620 xenograft tumours grown in mice
T1 sequence (P09874 whole entry): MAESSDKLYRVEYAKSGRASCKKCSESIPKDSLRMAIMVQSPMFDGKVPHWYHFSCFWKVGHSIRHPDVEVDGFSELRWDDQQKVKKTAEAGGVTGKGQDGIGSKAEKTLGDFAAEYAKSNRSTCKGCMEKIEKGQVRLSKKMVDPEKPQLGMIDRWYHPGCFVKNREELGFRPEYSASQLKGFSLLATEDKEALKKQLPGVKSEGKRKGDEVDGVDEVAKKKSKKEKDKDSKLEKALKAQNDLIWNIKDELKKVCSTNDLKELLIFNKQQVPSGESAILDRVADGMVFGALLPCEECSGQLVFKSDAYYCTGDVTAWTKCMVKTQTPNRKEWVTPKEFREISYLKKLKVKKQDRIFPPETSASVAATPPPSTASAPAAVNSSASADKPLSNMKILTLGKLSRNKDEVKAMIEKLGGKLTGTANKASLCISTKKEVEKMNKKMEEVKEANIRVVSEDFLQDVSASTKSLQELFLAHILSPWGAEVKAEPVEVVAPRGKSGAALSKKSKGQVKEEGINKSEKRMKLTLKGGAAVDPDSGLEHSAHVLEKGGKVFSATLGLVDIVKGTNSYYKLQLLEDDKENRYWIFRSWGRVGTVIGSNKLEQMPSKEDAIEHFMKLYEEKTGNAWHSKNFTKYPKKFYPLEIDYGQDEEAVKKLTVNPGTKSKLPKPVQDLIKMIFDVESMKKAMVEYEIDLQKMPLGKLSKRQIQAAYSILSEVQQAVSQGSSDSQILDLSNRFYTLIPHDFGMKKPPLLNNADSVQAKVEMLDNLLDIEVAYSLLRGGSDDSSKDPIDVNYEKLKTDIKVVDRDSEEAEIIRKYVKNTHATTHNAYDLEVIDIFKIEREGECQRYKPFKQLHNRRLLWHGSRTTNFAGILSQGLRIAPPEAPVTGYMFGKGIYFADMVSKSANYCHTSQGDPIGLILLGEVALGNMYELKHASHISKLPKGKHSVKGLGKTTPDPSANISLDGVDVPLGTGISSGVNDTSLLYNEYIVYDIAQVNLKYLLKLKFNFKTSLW
As to the kind of experiment: PARP activity in SW620 xenograft tumour homogenates from formula III-treated mice ([32P] NAD+ incorporation). The format is in vivo. The settings on record: 10 mg/kg intraperitoneal. As for the experimental part: FIG. 7 is a bar chart showing the pharmacokinetics and pharmacodynanics with formula III in mice bearing SW620 xenografts;
(§1) Exponentially growing cells were exposed to 1% DMSO in culture medium (control) or a compound of formula I or III in 1% DMSO at the concentrations indicated in FIG. 4 to cells permeabilised with digitonin, or intact cells for 20 minutes prior to washing and digitonin-permeabilization. PARP activity was measured by incorporation of a [32P] labelled NAD+ substrate into TCA precipitateble polymers after stimulation by the addition of a blunt-ended oligonucleotide and compared with non-oligonucleotide-stimulated cells. PARP activity in tumour homogenates (1 in 40 in isotonic buffer) from formula III-treated mice was measured in the same way. PARP activity in pbls and tumour homogenates from formula I-phospate treated mice was measured by immunological detection of polymer using the 10H antibody. […] The poly(ADP-ribose) (PAR) polymer formation was quantified by chemiluminescence detection using a Fuji LAS3000 UV Illuminator by reference to serial dilutions of a PAR standard, following incubation with 10H antibody to PAR and a secondary anti-mouse antibody. The results were standardised by reference to the measured protein content of the homogenate.

Data set [4] has as its system SW620 xenografts. Put plainly: Tumour growth (median relative tumour volume) in mice bearing SW620 xenografts. The format is in vivo. From the text: FIG. 8 is a graph showing the tumour growth (median relative tumour volume) in mice bearing SW620 xenografts following treatment with formula III in combination with temozolomide (TMZ) and with TMZ alone;
FIG. 9 is a graph showing the tumour growth (median relative tumour volume) of mice bearing SW620 xenografts following treatment with formula I-phosphate in combination with temozolomide (TMZ) and with formula I-phosphate and TMZ alone;
However, shortly after this time the tumour size begins to increase.

The target of data set [5] is T2, PARP (Mus musculus, UniProt P11103). Put plainly: PARP activity assay in digitonin-permeabilised L1210 cells. The format is cell-based. Also noted: endogenous in cells; host or cells: L1210 cells, digitonin-permeabilised. The settings on record: L1210 cells permeabilised prior to adding the inhibitor. The protocol:
(§2) Exponentially growing cells were exposed to 1% DMSO in culture medium (control) or a compound of formula I or III in 1% DMSO at the concentrations indicated in FIG. 4 to cells permeabilised with digitonin, or intact cells for 20 minutes prior to washing and digitonin-permeabilization. PARP activity was measured by incorporation of a [32P] labelled NAD+ substrate into TCA precipitateble polymers after stimulation by the addition of a blunt-ended oligonucleotide and compared with non-oligonucleotide-stimulated cells. PARP activity in tumour homogenates (1 in 40 in isotonic buffer) from formula III-treated mice was measured in the same way. PARP activity in pbls and tumour homogenates from formula I-phospate treated mice was measured by immunological detection of polymer using the 10H antibody. Briefly, tumour homogenates diluted to up to 1:1000 in isotonic buffer were incubated with 350 μM NAD for 6 min and blotted onto nitrocellulose membrane. The poly(ADP-ribose) (PAR) polymer formation was quantified by chemiluminescence detection using a Fuji LAS3000 UV Illuminator by reference to serial dilutions of a PAR standard, following incubation with 10H antibody to PAR and a secondary anti-mouse antibody.

The nature of data set [6]: Plasma and tumour concentrations in mice bearing SW620 xenografts after intraperitoneal administration. The format is in vivo.
The subject of data set [7] is VC8 cell line. The settings on record: hamster, 24 h.
Experimental: as §4, §5, §6, §7
For data set [8], the target named is T2, PARP. Put plainly: PARP activity assay in intact L1210 cells (20 minutes exposure before permeabilisation). The format is cell-based. Also noted: endogenous in cells; host or cells: L1210 cells, digitonin-permeabilised. To be noted: exposed 20 minutes prior to permeabilisation. As for the experimental part: as §2
Data set [9] concerns the target T2, PARP. As to the kind of experiment: PARP activity in mouse peripheral blood lymphocytes after formula I-phosphate (10H antibody detection). The format is in vivo. The arrangement: PARP activity in pbls and tumour homogenates from formula I-phospate treated mice; from tissue; host or cells: peripheral blood lymphocytes of treated mice. The settings on record: 10 mg/kg intraperitoneal, up to 24 hr. As for the experimental part:
(§3) FIG. 6 is a pair of bar charts showing the blood and tumour pharmacokinetics and pharmacodynamics with formula I-phosphate at 1 mg/kg (upper) and 10 mg/kg (lower) in mice bearing SW620 xenografts;
as §1, with “antibody.” for “antibody. The results were standardised by reference to the measured protein content of the homogenate.”

The target in data set [10] is T1, PARP. Put plainly: PARP activity in SW620 xenograft tumour homogenates after formula I-phosphate (10H antibody detection). The format is in vivo, mice. As for the experimental part: as §3
as §1, with “antibody.” for “antibody. The results were standardised by reference to the measured protein content of the homogenate.”

Data set [11] in a line: Solubility of the phosphate salt. The format is physicochemical. To be noted: phosphate salt vs parent compound.
[12] abbreviates: 10 mg/kg intraperitoneal, SW620 xenograft.

T2 sequence (P11103 whole entry): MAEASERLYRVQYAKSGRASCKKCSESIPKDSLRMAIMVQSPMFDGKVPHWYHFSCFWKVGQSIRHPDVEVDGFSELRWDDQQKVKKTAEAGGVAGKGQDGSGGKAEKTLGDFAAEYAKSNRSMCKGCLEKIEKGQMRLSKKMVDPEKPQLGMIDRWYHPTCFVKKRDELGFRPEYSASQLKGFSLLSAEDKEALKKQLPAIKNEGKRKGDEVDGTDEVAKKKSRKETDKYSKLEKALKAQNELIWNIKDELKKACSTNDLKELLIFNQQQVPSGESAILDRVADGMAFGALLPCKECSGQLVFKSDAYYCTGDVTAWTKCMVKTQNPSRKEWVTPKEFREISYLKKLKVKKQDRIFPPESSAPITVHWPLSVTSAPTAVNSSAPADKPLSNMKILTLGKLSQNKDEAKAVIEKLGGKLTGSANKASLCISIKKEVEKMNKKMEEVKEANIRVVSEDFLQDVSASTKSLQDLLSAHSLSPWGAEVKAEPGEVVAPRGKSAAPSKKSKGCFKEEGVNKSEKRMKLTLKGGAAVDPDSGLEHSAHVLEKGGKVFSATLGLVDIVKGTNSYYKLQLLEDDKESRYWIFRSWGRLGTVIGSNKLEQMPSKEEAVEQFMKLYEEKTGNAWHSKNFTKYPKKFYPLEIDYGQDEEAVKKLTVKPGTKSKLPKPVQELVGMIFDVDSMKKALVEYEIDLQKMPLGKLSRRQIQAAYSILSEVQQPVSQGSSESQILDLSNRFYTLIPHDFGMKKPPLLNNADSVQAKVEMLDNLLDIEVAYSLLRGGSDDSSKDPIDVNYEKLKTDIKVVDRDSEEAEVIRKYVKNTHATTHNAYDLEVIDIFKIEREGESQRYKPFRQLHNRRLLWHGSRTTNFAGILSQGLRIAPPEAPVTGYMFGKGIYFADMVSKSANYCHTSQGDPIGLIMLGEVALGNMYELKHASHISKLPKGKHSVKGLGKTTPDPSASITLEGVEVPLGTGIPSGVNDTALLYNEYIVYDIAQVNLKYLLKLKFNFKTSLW

Turning to `CN(C)Cc1ccc(-c2nc3cccc4c3n2CCNC4=O)cc1` [Formula III], the “LC90 (concentration of active component that kills 90% of the cells)” value in data set [1] turned out to be 1200 nM. In addition, the CC50 amounted to 43 nM in data set [1] (read-out: LC50) and 100 nM in [2]. Moreover, the “PARP activity in the tumour” value in [3] is on record as “inhibits PARP activity in the tumour”. For the same molecule, in [4] (formula III 5 mg/kg daily×5 with temozolomide 68 mg/kg daily×5), the “time over which tumour shrinks to an undetectable size” value was “around 15 days”. In addition, the “further time tumour size remains undetectable” value in data set [4] (formula III 5 mg/kg daily×5 with temozolomide 68 mg/kg daily×5, then begins to increase) is given as 50 days; in [4] (formula III 15 mg/kg daily×5 with temozolomide, until the end of the experiment), 80 days. In data set [4] (formula III 15 mg/kg daily×5 with temozolomide, end of the experiment), the “tumour outcome at autopsy” value is on record as “complete tumour regression”. Moreover, the “PARP inhibitory activity, formula I compared with formula III” value in data set [5] is listed as “no difference”. Moreover, in data set [6] (setting [12]), the distribution to tumour entry is reported as “distributes well to the tumour”. The “retention in tumour relative to plasma with time” value in data set [6] (setting [12]) was “preferentially retained with time”.
Consider `CNCc1ccc(-c2[nH]c3cc(F)cc4c3c2CCNC4=O)cc1` [Formula I], for which, in data set [1], the “LC90 (concentration of active component that kills 90% of the cells)” value is given as 27 nM. The same molecule returned a CC50 in [7] of 12 nM. Further, the results for the “PARP inhibitory activity, formula I compared with formula III” value in data set [8] and in data set [5] were “more potent in intact cells” and “no difference”, respectively.
For `CNCc1ccc(-c2[nH]c3cc(F)cc4c3c2CCNC4=O)cc1.O=P(O)(O)O` [formula I-phosphate], in [9], the “PARP activity in pbls” value is recorded as below 50 % control. Moreover, the “effect on PARP activity” value in data set [10] (1 mg/kg intraperitoneal, compared with 10 mg/kg, pbls and tumour) is “less pronounced effect”. In addition, the “PARP activity in tumour” value in [10] (10 mg/kg intraperitoneal, up to 24 hr, SW620 xenograft) is below 50 % control. Besides, the “solubility relative to formula I” value in data set [11] was “increases the solubility”. Besides, the “levels of formula I in plasma and tumour” value in [6] (1 mg/kg intraperitoneal, compared with 10 mg/kg) is “lower levels”. The “plasma concentration of parent compound formula I” value in data set [6] (10 mg/kg intraperitoneal, 24 hr after administration) is listed as “none could be detected”; in data set [6] (10 mg/kg intraperitoneal, thirty minutes after administration), “highlevels”. The “tumour concentration of parent compound formula I” value in [6] (10 mg/kg intraperitoneal, 24 hr after administration, SW620 xenograft) is given as “significant levels were detectable”; in data set [6] (10 mg/kg intraperitoneal, thirty minutes after administration, SW620 xenograft) it was “highlevels”.
